Results from patent US20210128561A1, “MRGX Receptor Antagonists” (Rheinische-Friedrich-Wilhelms-Universität Bonn, priority 2019, published 2021).
Ends that are not written are not given here.

How the values were obtained:
human wildtype MrgX2 = molecular target: T1, human wildtype MrgX2 (Homo sapiens, UniProt Q96LB1); experiment: calcium assay (LN229 cells recombinantly expressing human wildtype MrgX2); type: cell-based; conditions: for % inhibition ± SEM: test concentration not given
T1 construct: expressed in transfected cells; host or cells: LN229 cells
T1 sequence (Q96LB1 1-330): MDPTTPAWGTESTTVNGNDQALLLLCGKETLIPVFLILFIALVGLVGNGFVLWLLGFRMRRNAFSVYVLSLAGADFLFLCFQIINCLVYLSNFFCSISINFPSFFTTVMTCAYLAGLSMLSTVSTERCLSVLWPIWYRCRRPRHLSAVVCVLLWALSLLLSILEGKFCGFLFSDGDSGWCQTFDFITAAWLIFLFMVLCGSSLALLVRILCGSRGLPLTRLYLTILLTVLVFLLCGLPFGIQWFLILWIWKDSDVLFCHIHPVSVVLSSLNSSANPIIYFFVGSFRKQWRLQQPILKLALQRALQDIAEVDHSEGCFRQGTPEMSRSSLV

human MrgX4 L83S = molecular target: T2, human MrgX4 L83S (Homo sapiens, UniProt Q96LA9, L83S); experiment: β-arrestin assay (CHO β-arrestin human MrgX4 L83S); type: cell-based; conditions: for % inhibition ± SEM: test concentration not given
T2 construct: expressed in transfected cells; host or cells: CHO beta-arrestin cells

human LAD2 mast cells = conditions: cited from earlier work

T2 sequence (Q96LA9 whole entry L83S): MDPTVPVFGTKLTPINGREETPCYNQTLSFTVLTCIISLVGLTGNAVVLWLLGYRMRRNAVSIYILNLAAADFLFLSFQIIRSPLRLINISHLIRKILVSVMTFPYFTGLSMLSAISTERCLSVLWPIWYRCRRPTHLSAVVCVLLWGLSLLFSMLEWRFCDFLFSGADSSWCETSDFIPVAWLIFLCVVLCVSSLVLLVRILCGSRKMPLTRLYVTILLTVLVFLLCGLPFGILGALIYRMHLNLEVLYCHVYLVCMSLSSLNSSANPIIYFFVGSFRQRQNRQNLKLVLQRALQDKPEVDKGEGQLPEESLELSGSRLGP

| Compound | IC50 (human wildtype MrgX2) | IC50 (human MrgX4 L83S) | % inhibition ± SEM (human MrgX4 L83S) | also measured |
| --- | --- | --- | --- | --- |
| CC(C)c1cc(=O)n2c(nc3ccccc32)[nH]1 [A-17] | > 100000 nM | 3220 ± 820 nM |  | % inhibition ± SEM (human wildtype MrgX2): 70% |
| CCc1c(C(C)(C)C)[nH]c2nc3ccccc3n2c1=O [C-76] |  | 349 ± 65 nM |  |  |
| 2-Methyl-4H-benzo[4,5]thiazolo[3,2-a]pyrimidin-4-one [B-60] |  | > 100000 nM | 14% |  |
| CCCCc1c(O)[nH]c2nc3ccccc3n2c1=O [A-25] |  | > 100000 nM | 22% |  |
| O=c1ccn2c(n1)[nH]c1ccccc12 [B-64, Benzo[4,5]imidazo[1,2-a]pyrimidin-2(10H)-one] |  | > 100000 nM | 0% |  |
| CCOC(=O)CCc1c(C)[nH]c2nc3ccccc3n2c1=O [A-15] | > 100000 nM | 1400 ± 880 nM |  | % inhibition ± SEM (human wildtype MrgX2): 3% |
| substance P (RPKPQQFFGLM-NH2; ends and bridges not checked; UniProt P20366 58-68, looked up) |  |  |  | β-hexosaminidase release of SP alone (human LAD2 mast cells; 1 μM substance P, LAD2): 60%; β-hexosaminidase release of substance P alone (human LAD2 mast cells; saikosaponin A study, stimulus stated as 30 μg/mL compound 48/80, LAD2): 100% |
| CCc1c(CC(C)C)[nH]c2nc3ccccc3n2c1=O [C-78] | 51.3 ± 19.1 nM | 468 ± 52 nM |  |  |
| Gln-D-Trp(Formyl-)Phe-benzylester [QWF] |  |  |  | β-hexosaminidase release of SP and QWF together (human LAD2 mast cells; 100 μM QWF vs. 1 μM substance P, LAD2): 20% |
| COC(=O)c1cc(=O)[nH]c2nc3ccccc3n12 [B-65] |  | > 100000 nM | 48% |  |
| O=c1ccsc2nc3ccccc3n12 [B-58, 4H-benzo[4,5]imidazo[2,1-b][1,3]thiazin-4-one] |  | > 100000 nM | −44% |  |
| CCc1c(C2CC2)[nH]c2nc3ccccc3n2c1=O [C-77] |  | 1180 ± 330 nM |  |  |
| CCc1c(C)nc2[nH]ccn2c1=O [B-31] |  | > 100000 nM | 40% |  |
| CCCc1[nH]c2nc3ccccc3n2c(=O)c1CCC [B-45] | > 100000 nM | 214 ± 32 nM |  | % inhibition ± SEM (human wildtype MrgX2): 89% |
| CCc1c(C(C)C)[nH]c2nc3cc(F)ccc3n2c1=O [C-74] | 1.26 ± 0.29 nM | 18 ± 4.4 nM |  |  |
| Cc1[nH]c2nc3ccccc3n2c(=O)c1CCN=[N+]=[N-] [C-69] |  | > 100000 nM | 9% |  |
| O=c1cc(-c2ccccc2)[nH]c2nc3ccccc3n12 [A-20] |  | > 100000 nM | −2% |  |
| CCc1c(C(C)C)[nH]c2nc3cc(Cl)c(Cl)cc3n2c1=O [B-41] | 8.27 ± 0.82 nM | 477 ± 87 nM |  |  |
| Cc1cc(=O)n2c(n1)oc1ccccc12 [B-59, 2-Methyl-4H-benzo[4,5]oxazolo[3,2-a]pyrimidin-4-one] |  | > 100000 nM | 13% |  |
| CCc1c(C(C)C)[nH]c2nc3ccc(C)cc3n2c1=O [C-70] | 0.352 ± 0.07 nM | 147 ± 15 nM |  |  |
| CCc1c(C(C)C)[nH]c2nc3cc(F)c(F)cc3n2c1=O [B-40] | 0.42 ± 0.054 nM | 22.5 ± 2.4 nM |  |  |
| COCCc1c(C)[nH]c2nc3ccccc3n2c1=O [B-35] |  | > 10000 nM | 20% |  |
| CCCn1c(C)cc(=O)n2c3ccccc3nc12 [A-4] |  | > 100000 nM | 35% |  |
| O=C(O)c1cnc2[nH]c3ccccc3n2c1=O [B-32] |  | > 100000 nM | 45% |  |
| CNCCc1c(C)[nH]c2nc3ccccc3n2c1=O [C-68] |  | > 100000 nM | 8% |  |

| Compound | IC50 (human wildtype MrgX2) | IC50 (human MrgX4 L83S) | % inhibition ± SEM (human MrgX4 L83S) | also measured |
| --- | --- | --- | --- | --- |
| CCc1c(C(C)C)[nH]c2nc3cc(C)c(C)cc3n2c1=O [B-39] | 18.4 ± 5.4 nM | 87.7 ± 36.8 nM |  |  |
| CCCc1cc(=O)n2c(nc3ccccc32)[nH]1 [A-19] | > 100000 nM | 14700 ± 1300 nM |  | % inhibition ± SEM (human wildtype MrgX2): 27% |
| CC(C)(C)c1cc(=O)n2c(nc3ccccc32)[nH]1 [A-18] |  | > 100000 nM | 48% |  |
| Cc1cc(=O)n2cc[nH]c2n1 [A-1] |  | > 100000 nM | 4% |  |
| CCCCc1c(C)[nH]c2nc3ccccc3n2c1=O [A-11] |  | > 100000 nM | 37% |  |
| CCOC(=O)Cc1cc(=O)n2c(nc3ccccc32)[nH]1 [A-29] |  | > 100000 nM | −33% |  |
| CCc1c(C(C)C)[nH]c2nc3cc(Br)c(Br)cc3n2c1=O [C-75] | 36.8 ± 8.4 nM | 890 ± 184 nM |  |  |
| CSc1cc(C(C)C)nc2nc3ccccc3n12 [B-61] |  | > 10000 nM | 2% |  |
| Cc1[nH]c2nc3ccccc3n2c(=O)c1CCc1ccccc1 [A-14] |  | > 10000 nM | 19% |  |
| CCc1c(C(C)C)[nH]c2nc3c(C)cccc3n2c1=O [B-38] | 54 ± 19.2 nM | > 100000 nM | 15% |  |
| O=c1c2c([nH]c3nc4ccccc4n13)CCCC2 [B-55] | > 100000 nM | 5660 ± 1150 nM |  | % inhibition ± SEM (human wildtype MrgX2): 20% |
| Cc1cc(=O)n2c(n1)[nH]c1ccccc12 [B-33] |  | > 100000 nM | 24% |  |
| CCc1c(C(C)C)[nH]c2nc3cc(C)ccc3n2c1=O [C-71] | 0.446 ± 0.142 nM | 91 ± 29.2 nM |  |  |
| CCc1c(O)[nH]c2nc3ccccc3n2c1=O [A-24] | > 100000 nM | > 100000 nM | 16% | % inhibition ± SEM (human wildtype MrgX2): 2% |
| Cc1cc(=O)n2c3ccccc3nc2n1CC#N [A-7] |  | > 100000 nM | 43% |  |
| CCc1c(C(C)C)nc2n(Cc3ccccc3)c3cc(C)ccc3n2c1=O [C-73] |  | > 10000 nM | 40% |  |
| CCCc1c(C(C)C)[nH]c2nc3ccccc3n2c1=O [B-42] | > 100000 nM | 512 ± 107 nM |  | % inhibition ± SEM (human wildtype MrgX2): 68% |
| Cc1cc(=O)n2c3ccccc3nc2n1Cc1ccc(Cl)cc1 [A-6] |  | > 10000 nM | 14% |  |
| CC(C)c1cc(=O)n2c3ccccc3n(C)c2n1 [B-36] | > 100000 nM | > 100000 nM | 48% | % inhibition ± SEM (human wildtype MrgX2): 10% |
| O=C(O)Cc1cc(=O)n2c(nc3ccccc32)[nH]1 [A-27] |  | > 100000 nM | −18% |  |
| NC1=NC=NC2Nc3ccccc3N12 (stereo not shown) [B-66] |  | > 100000 nM | 4% |  |
| CCc1c(C)n(C)c2nc3ccccc3n2c1=O [A-30] | > 100000 nM | > 10000 nM | 2% | % inhibition ± SEM (human wildtype MrgX2): 31% |
| Cc1[nH]c2nc3ccccc3n2c(=O)c1Cc1ccccc1 [A-13] |  | > 100000 nM | 24% |  |
| CCc1c(-c2ccccc2)[nH]c2nc3ccccc3n2c1=O [C-79] | > 10000 nM | 540 ± 76 nM |  | % inhibition ± SEM (human wildtype MrgX2): 105% |
| CCc1c(-c2ccc(OC)cc2)[nH]c2nc3ccccc3n2c1=O [B-46] |  | 250 ± 61 nM |  |  |

| Compound | IC50 (human wildtype MrgX2) | IC50 (human MrgX4 L83S) | % inhibition ± SEM (human MrgX4 L83S) | also measured |
| --- | --- | --- | --- | --- |
| N#CCCc1c(-c2ccccc2)[nH]c2nc3ccccc3n2c1=O [A-22] |  | > 100000 nM | 2% |  |
| O=c1ccnc2[nH]c3ccccc3n12 [A-2] |  | > 100000 nM | 18% |  |
| Cc1cc(=O)n2c(nc3cc4ccccc4cc32)[nH]1 [B-62] |  | > 100000 nM | 18% |  |
| COC(=O)Cc1cc(=O)n2c(nc3ccccc32)[nH]1 [A-28] |  | > 100000 nM | 4% |  |
| CCOC(=O)c1cnc2[nH]c3ccccc3n2c1=O [A-3] |  | > 100000 nM | 25% |  |
| CCCc1c(C)[nH]c2nc3ccccc3n2c1=O [A-10] | 683 ± 174 nM | 2420 ± 220 nM |  |  |
| Cc1[nH]c2nc3ccccc3n2c(=O)c1C [A-8] | 2890 ± 240 nM | 11600 ± 3700 nM |  |  |
| Cc1[nH]c2nc3ccccc3n2c(=O)c1CCCl [C-67] |  | 8040 ± 1630 nM |  |  |
| Cc1[nH]c2nc3ccccc3n2c(=O)c1CCC#N [A-16] |  | > 100000 nM | 26% |  |
| CC(C)c1cc(=O)n2c(nc3cc4ccccc4cc32)[nH]1 [B-63] |  | > 100000 nM | 6% |  |
| CCCc1c(-c2ccccc2)[nH]c2nc3ccccc3n2c1=O [A-21] | 12.1 ± 1.5 nM | 583 ± 49 nM |  |  |
| CCCc1[nH]c2nc3ccccc3n2c(=O)c1CC [B-43] |  | 278 ± 42 nM |  |  |
| Cc1[nH]c2nc3ccccc3n2c(=O)c1CCC(C)C [A-12] |  | > 10000 nM | −25% |  |
| CCc1c(C)[nH]c2nc3ccccc3n2c1=O [A-9] | 662 ± 102 nM | 3230 ± 360 nM |  |  |
| Cc1cc(=O)n2c3ccccc3nc2n1Cc1ccccc1 [A-5] |  | > 10000 nM | −5% |  |
| CCc1c(C(C)C)nc2n(Cc3ccccc3)c3ccc(C)cc3n2c1=O [C-72] |  | > 10000 nM | 39% |  |
| CCc1c(-c2cccs2)[nH]c2nc3ccccc3n2c1=O [C-80] |  | > 10000 nM | 34% |  |
| CC(C)c1cc(=S)n2c(nc3ccccc32)[nH]1 [B-56] | 3.94 ± 1.67 nM | 148 ± 42 nM |  |  |
| Cc1[nH]c2nc3ccccc3n2c(=O)c1CCO [B-34] | > 100000 nM | > 100000 nM | 22% | % inhibition ± SEM (human wildtype MrgX2): −2% |
| CCCc1c(CC)c(=O)n2c([nH]c3ccccc32)c1C#N [C-88] | > 10000 nM | 5540 ± 1740 nM |  | % inhibition ± SEM (human wildtype MrgX2): 86% |
| CCCc1[nH]c2nc3cc(C)c(C)cc3n2c(=O)c1CC [B-44] | 199 ± 25 nM | 1400 ± 360 nM |  |  |
| Cc1cc(=S)n2c(nc3ccccc32)[nH]1 [B-57] |  | > 100000 nM | −4% |  |
| COCc1cc(=O)n2c(nc3ccccc32)[nH]1 [A-26] |  | > 100000 nM | −13% |  |
| CCc1c(C(C)C)[nH]c2nc3ccccc3n2c1=O [B-37] | 2.48 ± 0.75 nM | 290 ± 98 nM |  |  |
| CCc1c(C(C)C)[nH]c2nc3ccc(Cl)cc3n2c1=O [C-85] |  | 223 ± 19 nM |  |  |
